Source: US11203600B2 (Denali Therapeutics Inc., priority 2017, dated 2021)
pIC50: −log10 of the molar value.

These molecules were tested against GST-hRIPK1 (8-327) (Homo sapiens (Human), UniProt Q13546) (assay: Fluorescent Polarization Binding (FP Binding) assay, RIPK1). Conditions: 10 nM GST-hRIPK1 (8-327), 5 nM fluorescent-labeled ligand, RT, 30 min, mean of at least two independent experiments.
GST-hRIPK1 (8-327), sequence (Q13546 8-327): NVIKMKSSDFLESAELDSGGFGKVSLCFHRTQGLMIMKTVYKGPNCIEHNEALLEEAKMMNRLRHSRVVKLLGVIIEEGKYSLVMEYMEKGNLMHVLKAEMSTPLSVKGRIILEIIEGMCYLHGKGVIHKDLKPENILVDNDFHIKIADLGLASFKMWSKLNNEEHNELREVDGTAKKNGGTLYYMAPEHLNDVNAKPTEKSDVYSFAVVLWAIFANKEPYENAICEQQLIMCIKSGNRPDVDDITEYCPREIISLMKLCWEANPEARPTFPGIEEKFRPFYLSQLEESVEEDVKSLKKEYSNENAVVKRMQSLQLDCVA
Outline: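 Binding by fluorescence polarisation at RT: 10 nM baculovirus-expressed GST-hRIPK1 (8-327) and 5 nM fluorescent ligand, 30 min, in 50 mM HEPES pH 7.5, 50 mM MgCl2, 0.02% CHAPS, 1% DMSO. FP read at ex 531/em 595 nm. IC50 from normalised percent inhibition, mean of ≥2 experiments.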
Work on CC(C)(C)C(=O)N1CCOc2c(C#N)cncc2C1 [Example 175, 4-(2,2-dimethylpropanoyl)-3,5-dihydro-2H-pyrido[3,4-f][1,4]oxazepine-9-carbonitrile] yielded a pIC50 of 7.00 to 10.00. In the case of COc1nc(N2CCC(OC)(C(=O)N3CCOc4c(C#N)cncc4C3)CC2)nc(C)c1F [Example 195, 4-[1-(5-fluoro-4-methoxy-6-methyl-pyrimidin-2-yl)-4-methoxy-piperidine-4-carbonyl]-3,5-dihydro-2H-pyrido[3,4-f][1,4]oxazepine-9-carbonitrile], the pIC50 was less than 6.00. In the case of COc1ccnc(N2CCC(C(=O)N3CCOc4c(C#N)cncc4C3)CC2)n1 [Example 117, 4-[1-(4-methoxypyrimidin-2-yl)piperidine-4-carbonyl]-3,5-dihydro-2H-pyrido[3,4-f][1,4]oxazepine-9-carbonitrile], the pIC50 was 7.00 to 10.00. CC(C)(C(=O)N1CCOc2c(C#N)cncc2C1)C1CN(c2ncc(F)cn2)C1 [Example 85, 4-[2-[1-(5-fluoropyrimidin-2-yl)azetidin-3-yl]-2-methyl-propanoyl]-3,5-dihydro-2H-pyrido[3,4-f][1,4]oxazepine-9-carbonitrile] gave a pIC50 of 6.00 to 7.00. For N#Cc1cncc2c1OCCN(C(=O)C1(F)CCN(c3cnc4ccccc4n3)CC1)C2 [Example 198, 4-(4-fluoro-1-quinoxalin-2-yl-piperidine-4-carbonyl)-3,5-dihydro-2H-pyrido[3,4-f][1,4]oxazepine-9-carbonitrile], the pIC50 was 6.00 to 7.00. CC(C)(C(=O)N1CCOc2c(C#N)ccc(F)c2C1)C(F)F [Example 2, 4-(3,3-difluoro-2,2-dimethyl-propanoyl)-6-fluoro-3,5-dihydro-2H-1,4-benzoxazepine-9-carbonitrile] showed a pIC50 of 7.00 to 10.00. With N#Cc1cncc2c1OCCN(C(=O)C1(F)CCN(c3ncccc3F)CC1)C2 [Example 113, 4-[4-fluoro-1-(3-fluoro-2-pyridyl)piperidine-4-carbonyl]-3,5-dihydro-2H-pyrido[3,4-f][1,4]oxazepine-9-carbonitrile] the pIC50 was 6.00 to 7.00. With O=C(C1CCN(c2ncc(F)cn2)CC1)N1Cc2ccccc2CCO1 [Example 39, 2-[1-(5-fluoropyrimidin-2-yl)piperidine-4-carbonyl]-1,2,4,5-tetrahydro-3,2-benzoxazepine] the pIC50 was 6.00 to 7.00. In the case of CCC(C)(C)C(=O)N1CCOc2ccc(F)cc2C1 [Example 32, 1-(7-fluoro-2,3,4,5-tetrahydro-1,4-benzoxazepin-4-yl)-2,2-dimethylbutan-1-one], the pIC50 was 7.00 to 10.00. For CC(F)(F)C(C)(C)C(=O)N1CCOc2c(C#N)cncc2C1 [Example 142, 4-(3,3-difluoro-2,2-dimethyl-butanoyl)-3,5-dihydro-2H-pyrido[3,4-f][1,4]oxazepine-9-carbonitrile], the pIC50 was 7.00 to 10.00. For N#Cc1cncc2c1OCCN(C(=O)C1(F)CCN(c3ncc(F)c(NC4CC4)n3)CC1)C2 [Example 124, 4-[1-[4-(cyclopropylamino)-5-fluoro-pyrimidin-2-yl]-4-fluoro-piperidine-4-carbonyl]-3,5-dihydro-2H-pyrido[3,4-f][1,4]oxazepine-9-carbonitrile], the pIC50 was 7.00 to 10.00. Work on CC(C)(C(=O)N1CCOc2c(C#N)cccc2C1)C1CC1 [Example 26, 4-(2-cyclopropyl-2-methyl-propanoyl)-3,5-dihydro-2H-1,4-benzoxazepine-9-carbonitrile] yielded a pIC50 of 7.00 to 10.00. CCC(C)(C(=O)N1CCOc2c(C#N)cncc2C1)C(F)(F)F (stereo not drawn) [Example 67, 4-[2-methyl-2-(trifluoromethyl)butanoyl]-3,5-dihydro-2H-pyrido[3,4f][1,4]oxazepine-9-carbonitrile] was tested, and the pIC50 was 7.00 to 10.00. N#Cc1cncc2c1OCCN(C(=O)C1(F)CCN(c3ncc4ccccc4n3)CC1)C2 [Example 97, 4-(4-fluoro-1-quinazolin-2-yl-piperidine-4-carbonyl)-3,5-dihydro-2H-pyrido[3,4-f][1,4]oxazepine-9-carbonitrile] gave a pIC50 of 7.00 to 10.00.

Same assay, conditions: GST-hRIPK1 (8-327), mean of at least two independent experiments
N#Cc1cncc2c1OCCN(C(=O)C1(F)CCN(c3ncc(F)n4ncnc34)CC1)C2 [Example 294, 4-[4-fluoro-1-(5-fluoro-[1,2,4]triazolo[1,5-a]pyrazin-8-yl)piperidine-4-carbonyl]-3,5-dihydro-2H-pyrido [3,4-f][1,4]oxazepine-9-carbonitrile] gave a pIC50 of 7.00 to 10.00. In the case of O=C(C1CCN(c2ccnc3ccnn23)C[C@@H]1F)N1CCOc2c(F)cncc2C1 (stereo partly drawn) [Example 253, (9-fluoro-3,5-dihydro-2H-pyrido[3,4-f][1,4]oxazepin-4-yl)-[(3,4)-trans-3-fluoro-1-pyrazolo[1,5-a]pyrimidin-7-yl-4-piperidyl]methanone], the pIC50 was 7.00 to 10.00. In the case of N#Cc1cncc2c1OCCN(C(=O)C1CCN(c3ccnc4ccnn34)C[C@@H]1F)C2 (stereo partly drawn) [Example 249, 4-[(3,4)-trans-3-fluoro-1-pyrazolo[1,5-a]pyrimidin-7-yl-piperidine-4-carbonyl]-3,5-dihydro-2H-pyrido[3,4-f][1,4]oxazepine-9-carbonitrile], the pIC50 was 7.00 to 10.00. N#Cc1cncc2c1OCCN(C(=O)C1CCN(c3ccnc4ccnn34)CC1)C2 [Example 205, 4-(1-pyrazolo[1,5-a]pyrimidin-7-ylpiperidine-4-carbonyl)-3,5-dihydro-2H-pyrido[3,4-f][1,4]oxazepine-9-carbonitrile] was tested, and the pIC50 was 6.00 to 7.00. Work on C=CC(C)(C)C(=O)N1CCOc2c(C#N)cncc2C1 [Example 271, 4-(2,2-dimethylbut-3-enoyl)-3,5-dihydro-2H-pyrido[3,4-f][1,4]oxazepine-9-carbonitrile] yielded a pIC50 of 7.00 to 10.00. In the case of COc1nc(N2CCC(C(=O)N3CCOc4ccncc4C3)CC2)ncc1F [Example 238], the pIC50 was 7.00 to 10.00. CCC(C)(CC#N)C(=O)N1CCOc2c(C#N)cncc2C1 (single isomer, unassigned) [Example 265, 4-[2-(Cyanomethyl)-2-methyl-butanoyl]-3,5-dihydro-2H-pyrido[3,4-f][1,4]oxazepine-9-carbonitrile] showed a pIC50 of 7.00 to 10.00. For CCC(C)(OC)C(=O)N1CCOc2c(C#N)cncc2C1 (single isomer, unassigned) [Example 282, 4-(2-Methoxy-2-methyl-butanoyl)-3,5-dihydro-2H-pyrido[3,4-f][1,4]oxazepine-9-carbonitrile], the pIC50 was 6.00 to 7.00. Work on COc1nc(N2CCC(C(=O)N3CCOc4c(F)cncc4C3)CC2)ncc1F [Example 236] yielded a pIC50 of 7.00 to 10.00. Molecule COc1nc(N2CCC(OC)(C(=O)N3CCOc4ccncc4C3)CC2)ncc1F [Example 235, 3,5-dihydro-2H-pyrido[3,4-f][1,4]oxazepin-4-yl-[1-(5-fluoro-4-methoxy-pyrimidin-2-yl)-4-methoxy-4-piperidyl]methanone] has a pIC50 of 7.00 to 10.00.
